Laboratory results reported in patent US20040242587A1, “Pyrrolo[1,2-b]pyridazine compounds” (Pfizer Inc, priority 2003, published 2004).

Question: With `Cc1cc(N[C@@H]2CN(C(=O)OCc3ccccc3)C[C@@H]2O)c2cc(C)c(-c3ccc(Cl)cc3Cl)n2n1` [Example 1, Benzyl (3R,4S)-3-{[7-(2,4-dichlorophenyl)-2.6-dimethylpyrrolo[1,2-b]pyridazin-4-yl]amino}-4-hydroxypvrrolidine-1-carboxylate] as the compound, how does the melting point read?
Answer: Its melting point is 105 to 110 °C.

Question: For `Cc1cc(N2CCC3(CC2)OCCO3)c2cc(C)c(-c3ccc(Cl)cc3Cl)n2n1` [Example 8, 8-[7-(2,4-Dichlorophenyl)-2,6-dimethylpyrrolo[1,2-b]pyridazin-4-yl]-1,4-dioxa-8-azaspiro[4,5]decane], which melting point is on record?
Answer: The melting point was 193.2 to 196.4 °C.

Question: For `Cc1cc(N2CCC(=O)CC2)c2cc(C)c(-c3ccc(Cl)cc3Cl)n2n1` [Example 9, 1-[7-(2,4-Dichlorophenyl)-2,6-dimethylpyrrolo[1,2-b]pyridazin-4-yl]piperidin-4-one], which melting point is on record?
Answer: The melting point was 169.7 to 171.3 °C.

Question: Which melting point does the source give for `Cc1cc(N2CC=C(C(N)=O)CC2)c2cc(C)c(-c3ccc(Cl)cc3Cl)n2n1` [Example 11, 1-[7-(2,4-Dichlorophenyl)-2,6-dimethylpyrrolo[1,2-b]pyridazin-4-yl]-1,2,3,6-tetrahydropyridine-4-carboxamide] here?
Answer: Its melting point is > 212 °C (dec.).
